Patent US20080305054A1, “Use of Glycosylated Flavanones for the Browning of Skin or Hair” (SYMRISE GMBH & CO. KG, priority 2004, published 2008)
Like-named read-outs stand apart in the source and are kept apart here. Blank lines part the entries; values can stand above or below the compound they belong to.

Key:
[1] = tested on: melanin synthesis; conditions: cited from earlier work
[2] = tested on: B16V melanoma cells; conditions: cited from earlier work
[3] = tested on: tyrosinase; conditions: of 27 flavonoids tested; cited from earlier work
[4] = tested on: B16V mouse melanoma cells; assay: Cytotoxicity determination (MTT); format: cell-based; conditions: MTT viability, 48 h incubation, concentration at which 50% of the cells are vital
Procedure: (§1) B16V mouse melanoma cells are disseminated in a 96-well microtitre plate in a concentration of 2×10^4 cells/well (B16V). After cultivation for 24 h at 37° C. and 5% CO2 in RPMI medium (B16V cells), enriched with 10% foetal calf serum, the medium is drawn off. Various concentrations of the test substances, dissolved in fresh medium enriched with 5% foetal calf serum, are added and incubated for a further 48 h. In parallel the cells are incubated with SDS as standard in concentrations of 0.01 mM, 0.1 mM, 1 mM and 10 mM. After incubation the medium is drawn off and the cells are incubated for 2 h with MTT (3-[4,5-dimethylthiazol-2-yl]2,5-diphenyl tetrazolium bromide). After extraction of the dye (MTT) with acetic acid SDS in DMSO (10 min), the absorption (A) is measured at 570 nm.
(§2) The mean and standard deviation of the controls, blanks and samples are calculated. The mean of the blank is subtracted from the means of the controls and samples. The viability of the cells is stated as a percentage relative to the controls (100%):
(§3) Viability (%)=[(Atest compound/Acontrol)×100]
(§4) The IC50 (mean inhibitory concentration) indicates the test substance concentration at which 50% of the cells are vital.

[5] = Cytotoxicity determination (MTT); format: cell-based, mouse; conditions: mouse, B16V mouse melanoma cells; Table 3, repeat of the Table 1 values; read-out: IC50 cytotox
Procedure: as §1, §2, §3, §4

[6] = tested on: B16V mouse melanoma cells; assay: Pigmenting effect (stimulation of pigmentation); format: cell-based
Procedure: mouse melanoma cells are disseminated in a 96-well microtitre plate in a concentration of 5×10^3 cells/well. After cultivation for 24 h at 37° C. and 5% CO2 in RPMI medium, enriched with 10% foetal calf serum, various concentrations of the test substances and 10 nM α-MSH (α-melanocyte stimulating hormone) are added and incubated for a further 96 h. […] The stimulation of pigmentation in the presence of the test compounds was calculated using the following equation: Stimulation of pigmentation (%)=[(A test compound/A control)×100]-100 From the stimulation of pigmentation (%) in a series of dilutions of test compounds, the EC50 for each test compound was calculated. This is the concentration of a test compound at which pigmentation is stimulated by 50%.

[7] = tested on: B16V melanoma cells; conditions: cited from earlier work; remark: listed apart in the source
[8] = tested on: male rats; conditions: cited from earlier work
[9] = tested on: glucose absorption; conditions: cited from earlier work
[10] = tested on: melanoma cells; conditions: cited from earlier work
[11] = tested on: melanoma cells; conditions: cited from earlier work; remark: listed apart in the source
[12] = 96 h with 10 nM α-MSH, concentration at which pigmentation is stimulated by 50%, non-cytotoxic concentration range
[13] = Table 3, repeat of the Table 2 values
[14] = Mus musculus, 96 h, 96 h with 10 nM α-MSH, concentration at which pigmentation is stimulated by 50%, non-cytotoxic concentration range
[15] = Mus musculus, read-out: EC50 pigm. effect, Table 3, repeat of the Table 2 values

Compound: O=C(O[C@@H]1Cc2c(O)cc(O)cc2O[C@@H]1c1cc(O)c(O)c(O)c1)c1cc(O)c(O)c(O)c1 [epigallocatechin gallate]
effect on melanin synthesis [1]: inhibition of melanin synthesis

Compound: O=C(CCc1ccc(O)cc1)c1c(O)cc(O)cc1O [phloretin]
effect on melanogenesis ([2]; non-cytotoxic concentrations): ineffective

EC50 pigm. effect [6, 13]: inactive
Compound: O=c1c(O)c(-c2ccc(O)cc2)oc2cc(O)cc(O)c12 [Kaempferol]
tyrosinase inhibition [3]: tyrosinase inhibition | IC50 ([4]; Mus musculus, read-out: IC50): 43 µM | IC50 at 48 h [5]: 43 µM | EC50 [6, 12]: inactive

EC50 pigm. effect [6, 13]: inactive
Compound: COc1ccc([C@@H]2CC(=O)c3c(O)cc(O)cc3O2)cc1O [Hesperetin]
IC50 ([4]; Mus musculus, read-out: IC50): 40 µM | IC50 at 48 h [5]: 40 µM | EC50 [6, 12]: inactive

Compound: O=c1c(O)c(-c2ccc(O)cc2O)oc2cc(O)cc(O)c12 [morin]
tyrosinase inhibition [3]: tyrosinase inhibition

EC50 pigm. effect [6, 13]: inactive
Compound: O=c1cc(-c2ccc(O)c(O)c2)oc2cc(O)cc(O)c12 [Luteolin]
tyrosinase inhibition [3]: tyrosinase inhibition | IC50 ([4]; Mus musculus, read-out: IC50): 37 µM | IC50 at 48 h [5]: 37 µM | EC50 [6, 12]: inactive

EC50 ([6]; Mus musculus, Table 3, repeat of the Table 2 values, read-out: EC50 pigm. effect): 15 µM
Compound: O=c1c(O)c(-c2ccc(O)c(O)c2)oc2cc(O)cc(O)c12 [Quercetin]
tyrosinase inhibition [3]: tyrosinase inhibition | IC50 ([4]; Mus musculus, read-out: IC50): 48 µM | IC50 at 48 h [5]: 48 µM | EC50 ([6]; Mus musculus, 96 h with 10 nM α-MSH, concentration at which pigmentation is stimulated by 50%, non-cytotoxic concentration range, read-out: EC50): 15 µM | maximum non-cytotoxic concentration [7]: 0.003 mM | melanin relative to the untreated control ([2]; maximum non-cytotoxic concentration of 0.003 mM): +38% | hepatotoxic effect [8]: hepatotoxic effect

Compound: COc1ccc(C2CC(=O)c3c(O)cc(OC4OC(CO)C(O)C(O)C4OC4OC(C)C(O)C(O)C4O)cc3O2)cc1O (stereo not drawn) [Neohesperidin]
IC50 [4]: > 4000 µM | IC50 at 48 h [5]: > 4000 µM | EC50 [6, 14]: < 2 µM | EC50 [6, 15]: 1 µM

Compound: O=C(CCc1ccc(O)cc1)c1c(O)cc(O)cc1O[C@@H]1O[C@H](CO)[C@@H](O)[C@H](O)[C@H]1O [Phloridzin]
cytotoxicity [7]: no cytotoxicity | melanin relative to the untreated control ([2]; 1 mM): +81% | inhibition of glucose absorption [9]: inhibitor of glucose absorption | toxicity to reproduction [9]: toxic to reproduction

Compound: theaflavinmonogallate
tyrosinase inhibition [3]: tyrosinase inhibition

EC50 pigm. effect [6, 13]: inactive
Compound: O=c1cc(-c2ccc(O)cc2)oc2cc(O)cc(O)c12 [Apigenin]
IC50 ([4]; Mus musculus, read-out: IC50): 33 µM | IC50 at 48 h [5]: 33 µM | EC50 [6, 12]: inactive

EC50 pigm. effect [6, 13]: inactive
Compound: O=C1C[C@@H](c2ccc(O)cc2)Oc2cc(O)cc(O)c21 [Naringenin]
IC50 ([4]; Mus musculus, read-out: IC50): 30 µM | IC50 at 48 h [5]: 30 µM | EC50 [6, 12]: inactive

Compound: C[C@@H]1O[C@@H](O[C@H]2[C@H](Oc3cc(O)c4c(c3)OC(c3ccc(O)cc3)CC4=O)O[C@H](CO)[C@@H](O)[C@@H]2O)[C@H](O)[C@H](O)[C@H]1O (stereo partly drawn) [Naringin]
IC50 [4]: > 10000 µM | IC50 at 48 h [5]: > 10000 µM | EC50 [6, 15]: 0.5 µM

Compound: O=c1c(O)c(-c2cc(O)c(O)c(O)c2)oc2cc(O)cc(O)c12 [myricetin]
tyrosinase inhibition [3]: tyrosinase inhibition

Compound: COc1ccc([C@@H]2CC(=O)c3c(O)cc(O[C@@H]4O[C@H](CO[C@@H]5O[C@@H](C)[C@H](O)[C@@H](O)[C@H]5O)[C@@H](O)[C@H](O)[C@H]4O)cc3O2)cc1O [Hesperidin]
IC50 ([4]; Mus musculus, 48 h): > 1000 µM | IC50 at 48 h [5]: 1500 µM | EC50 [6, 14]: < 2 µM | EC50 [6, 15]: 1.5 µM

Compound: O=c1c(O)cc([C@H]2Oc3cc(O)cc(O)c3C[C@H]2O)cc2c([C@H]3Oc4cc(O)cc(O)c4C[C@H]3O)cc(O)c(O)c12 [theaflavin]
tyrosinase inhibition [3]: tyrosinase inhibition

Compound: O=c1c(-c2ccc(O)cc2)coc2cc(O)ccc12 [daidzein]
effect on melanin production / melanogenesis [10]: no effect on melanogenesis

Compound: OC[C@H]1O[C@@H](Oc2cc3c(O)cc(O)cc3[o+]c2-c2ccc(O)c(O)c2)[C@H](O)[C@@H](O)[C@@H]1O [cyanidin-3-β-D-glucoside]
effect on melanin synthesis [11]: stimulates melanin synthesis

Compound: O=c1c(-c2ccc(O)cc2)coc2cc(O)cc(O)c12 [genistein]
effect on melanin production / melanogenesis [10]: increases melanin production
